Assay results as given in ChEMBL document CHEMBL1137102, “Synthesis and evaluation of 2-amino-8-alkoxy quinolines as MCHr1 antagonists. Part 1” (Bioorg Med Chem Lett, 2004).

What was measured:
[1] = molecular target: T1, Melanin-concentrating hormone receptor 1 (Homo sapiens, UniProt Q99705); experiment: Concentration required to inhibit binding of [125I]MCH radioligand to human melanin-concentrating hormone receptor 1 in IMR-32 I3.4.2 cell membranes
[2] = molecular target: T1, Melanin-concentrating hormone receptor 1; experiment: Concentration required to inhibit 50% of melanin-concentrating hormone induced [Ca2+] flux in IMR-32 cells measured by using a fluorometric imaging plate reader; assay type: functional, cell-based
[3] = Maximum concentration in brain was determined at the peroral dose of 10 mg/kg in diet-induced obese (DIO) mice; unit may be (ng/mL or ng/g); assay type: ADME, organism-based; set-up: dose 10 mg/kg, route oral; conditions: mouse, po
[4] = Area under curve in brain was determined at the peroral dose of 10 mg/kg in diet-induced obese (DIO) mice; unit may be (ng.h/mL or ng. h/g); assay type: ADME, organism-based; set-up: dose 10 mg/kg, route oral; conditions: mouse, in vivo, po
[5] = Half life in brain was determined at the peroral dose of 10 mg/kg in diet-induced obese (DIO) mice; assay type: ADME, organism-based; set-up: dose 10 mg/kg, route oral; conditions: mouse, po
[6] = Maximum concentration in plasma was determined at the peroral dose of 10 mg/kg in diet-induced obese (DIO) mice; unit may be (ng/mL or ng/g); assay type: ADME, organism-based; set-up: dose 10 mg/kg, route oral; conditions: mouse, po
[7] = Half life in plasma was determined at the peroral dose of 10 mg/kg in diet-induced obese (DIO) mice; assay type: ADME, organism-based; set-up: dose 10 mg/kg, route oral; conditions: mouse, po
[8] = Area under curve in plasma was determined at the peroral dose of 10 mg/kg in diet-induced obese (DIO) mice; unit may be (ng.h/mL or ng. h/g); assay type: ADME, organism-based; set-up: dose 10 mg/kg, route oral; conditions: mouse, in vivo, po

T1 sequence (Q99705 whole entry): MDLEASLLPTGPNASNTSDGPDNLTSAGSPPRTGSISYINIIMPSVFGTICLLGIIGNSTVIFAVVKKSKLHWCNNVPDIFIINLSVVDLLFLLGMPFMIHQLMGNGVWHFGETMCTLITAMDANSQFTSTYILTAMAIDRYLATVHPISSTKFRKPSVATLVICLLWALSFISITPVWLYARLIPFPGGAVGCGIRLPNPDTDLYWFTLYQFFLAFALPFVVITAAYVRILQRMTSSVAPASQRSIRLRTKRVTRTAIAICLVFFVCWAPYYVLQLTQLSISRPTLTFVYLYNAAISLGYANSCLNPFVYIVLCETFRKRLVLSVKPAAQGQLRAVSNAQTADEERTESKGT

Row | SMILES | IC50 [1] | IC50 [2] | other results
1 | Nc1ccc2cccc(O)c2n1 | > 2000 nM | – | –
2 | COc1cccc2ccc(N)nc12 | 1590 nM | – | –
3 | CC(C)=CCOc1cccc2ccc(N)nc12 | > 2000 nM | – | –
4 | Nc1ccc2cccc(OCC3CCCCC3)c2n1 | 90 nM | 1680 nM | –
5 | Nc1ccc2cccc(OCC3CCCO3)c2n1 (stereo not drawn) | > 2000 nM | – | –
6 | CC(CC(C)(C)C)Oc1cccc2ccc(N)nc12 (single isomer, unassigned; (+)) | 550 nM | 4510 nM | –
7 | CC(C)Oc1cccc2ccc(N)nc12 | 437 nM | – | –
8 | CC(CC(C)(C)C)Oc1cccc2ccc(N(C)C)nc12 (stereo not drawn) | > 2000 nM | > 10000 nM | –
9 | COCC(C)Oc1cccc2ccc(N)nc12 (stereo not drawn) | 606 nM | – | –
10 | CCCCCOc1cccc2ccc(N)nc12 | 580 nM | – | –
11 | CC(C)(C)CCOc1cccc2ccc(N)nc12 | 201 nM | – | –
12 | COCCOc1cccc2ccc(N)nc12 | > 2000 nM | – | –
13 | CCC(CC)Oc1cccc2ccc(N)nc12 | 326 nM | – | –
14 | CC(C)COc1cccc2ccc(N)nc12 | > 2000 nM | – | –
15 | CC(CC(C)(C)C)Oc1cccc2ccc(N3CCCCC3)nc12 (stereo not drawn) | > 2000 nM | > 10000 nM | –
16 | CCCOc1cccc2ccc(N)nc12 | 1100 nM | – | –
17 | CC(CC(C)(C)C)Oc1cccc2ccc(N)nc12 (single isomer, unassigned) | 20 nM | 90 nM | Cmax [3]: 595 ng/mL; AUC [4]: 1030 ng·h/mL; half-life [5]: 2.3 h; Cmax [6]: 127 ng/mL; half-life [7]: 1.9 h; AUC [8]: 247 ng·h/mL
18 | CCC#CCOc1cccc2ccc(N)nc12 | > 2000 nM | – | –
19 | CC(COC(C)(C)C)Oc1cccc2ccc(N)nc12 (stereo not drawn) | 306 nM | – | –

Row | SMILES | IC50 [1] | IC50 [2] | other results
20 | CC(C)CCOc1cccc2ccc(N)nc12 | 614 nM | – | –
21 | CC(CC(C)(C)C)Oc1cccc2ccc(NCc3ccc(-c4ccccc4Cl)o3)nc12 (stereo not drawn) | 60 nM | 530 nM | –
22 | Nc1ccc2cccc(OCC3CCC3)c2n1 | 432 nM | – | –
23 | CSCCOc1cccc2ccc(N)nc12 | > 2000 nM | – | –
24 | Nc1ccc2cccc(OCC3CCCC3)c2n1 | 53 nM | 2290 nM | –
25 | CC(CC(C)(C)C)Oc1cccc2ccc(N3CCCC3)nc12 (stereo not drawn) | > 2000 nM | > 10000 nM | –
26 | CCCCCCOc1cccc2ccc(N)nc12 | 818 nM | – | –
27 | Nc1ccc2cccc(OCC3CCOC3)c2n1 (stereo not drawn) | 115 nM | 6240 nM | –
28 | CC1CCCC(Oc2cccc3ccc(N)nc23)C1 (stereo not drawn) | 640 nM | – | –
29 | CC1CC1COc1cccc2ccc(N)nc12 (stereo not drawn) | 1640 nM | – | –
30 | CC(C)OCCOc1cccc2ccc(N)nc12 | > 2000 nM | – | –
31 | Nc1ccc2cccc(OC3CCCC3)c2n1 | > 2000 nM | – | –
32 | CCC(C)Oc1cccc2ccc(N)nc12 (stereo not drawn) | 174 nM | 5310 nM | –
33 | CC(CC(C)(C)C)Oc1cccc2cccnc12 (stereo not drawn) | > 2000 nM | > 10000 nM | –
34 | Nc1ccc2cccc(OCC3CC4CCC3C4)c2n1 (stereo not drawn) | 137 nM | 1730 nM | –
35 | CC1CCC(Oc2cccc3ccc(N)nc23)C1 (stereo not drawn) | 823 nM | – | –
36 | CCC(CC)C(C)Oc1cccc2ccc(N)nc12 (stereo not drawn) | 191 nM | 1300 nM | –
37 | COCCOCCOc1cccc2ccc(N)nc12 | > 2000 nM | – | –
38 | CC#CCCOc1cccc2ccc(N)nc12 | > 2000 nM | – | –

Row | SMILES | IC50 [1] | IC50 [2] | other results
39 | Nc1ccc2cccc(OCC3CC3)c2n1 | > 2000 nM | – | –
40 | COC(C)(C)CCOc1cccc2ccc(N)nc12 | 132 nM | 4670 nM | –
41 | CCC(C)COc1cccc2ccc(N)nc12 (stereo not drawn) | 36 nM | – | –
42 | CC1CCC(Oc2cccc3ccc(N)nc23)CC1 (stereo not drawn) | 349 nM | – | –
43 | CNc1ccc2cccc(OC(C)CC(C)(C)C)c2n1 (stereo not drawn) | 310 nM | 6090 nM | –
44 | Nc1ccc2cccc(OCCC3CC3)c2n1 | 492 nM | – | –
45 | Nc1ccc2cccc(OCCC(F)(F)F)c2n1 | 722 nM | – | –
46 | CCCCOc1cccc2ccc(N)nc12 | 789 nM | – | –
47 | Nc1ccc2cccc(OC3CCCCCC3)c2n1 | 137 nM | 3480 nM | –
48 | CCCC(C)Oc1cccc2ccc(N)nc12 (stereo not drawn) | 105 nM | 860 nM | –
49 | CC(CC(C)(C)C)Oc1cccc2ccc(N)nc12 (stereo in doubt; 19) | 41 nM | 211 nM | –
50 | CC(C)C(C)Oc1cccc2ccc(N)nc12 (stereo not drawn) | 199 nM | – | –
51 | Nc1ccc2cccc(OC3CCCCC3)c2n1 | 361 nM | – | –
52 | CCOCC(C)Oc1cccc2ccc(N)nc12 (stereo not drawn) | 1070 nM | – | –
53 | CC1CCCCC1Oc1cccc2ccc(N)nc12 (stereo not drawn) | 32 nM | 1330 nM | –
54 | CC(CC(C)(C)C)Oc1cccc2ccc(NCC3CC3)nc12 (stereo not drawn) | > 2000 nM | > 10000 nM | –
55 | Nc1ccc2cccc(OCCC3CCCCC3)c2n1 | 808 nM | – | –
56 | CCOCCOc1cccc2ccc(N)nc12 | > 2000 nM | – | –
57 | Nc1ccc2cccc(OC3CCC3)c2n1 | > 2000 nM | – | –
